Test results as given in patent EP1831172B1, “SUBSTITUTED CARBAMIC ACID QUINOLIN-6-YL ESTERS USEFUL AS ACETYLCHOLINESTERASE INHIBITORS” (priority 2004, dated 2006).
Read-outs that look alike come from different tables or passages of the source.

How the values were obtained:
[1] = test system: scopolamine induced deficit (dementia/amnesia) in mice; assay: Single trial passive avoidance test, scopolamine induced amnesia; type: in vivo; conditions: Mus musculus, 24 h
Method: Single trial passive avoidance is widely used as experimental test to assess learning memory functions in rodents. […] Passive Avoidance Test (in vivo): Study was conducted in adult Swiss male mice of 3-4 months (wt. 20-25 g) which were kept in standard housing condition with 12h light and dark cycle. Food and water were available ad libitum. […] Passive avoidance test was studied by a computerized shuttle box (Columbus Instruments, Ohio, USA) provided with a software program PACS 30. The shuttle box comprises of two compartments, isolated by an automated door. […] Each mouse was placed in the bright compartment and on transfer into the dark compartment it was given an electric shock (0.5 mA for 5 s) through floor grid. Transfer of mice from bright to dark compartment was recorded as transfer latency time (TLT) in seconds. TLT was recorded in control and treated groups (1st Trial, acquisition) and then after 24 hours (2nd Trial, retention). An increase in the TLT on 2nd Trial (retention) as compared to 1st Trial (acquisition) was taken as the criterion for successful learning and memory (cognitive activity). Scopolamine induced deficit (Dementia): Scopolamine a muscarinic antagonist, known to produce impairment in cognitive functions (dementia) in human as well as in experimental animals, was used to produce deficit (no significant increase on 2nd trial) in passive avoidance learning. Scopolamine was administered 5 min prior to 1st trial. Reversal of scopolamine induced deficit i.e. significant increase in 2nd trial by test substance indicates potential anti-dementia activity. […]. Drug administration: Scopolamine was administered 5 min prior to 1st trial in test group. Each test compound was administered orally in dose of 20µmol/kg (1% aq. suspension in gum acacia) 1 hour prior to 2nd trial in scopolamine treated mice (n=5). Scopolamine control group received 1 ml/kg of vehicle (1% aq. suspension in gum acacia) orally. Scopolamine was administered 5 min prior to 1st trial in test group. […] Donepezil (10 mg/kg, po, as1% aqueous suspension in gum acacia) was used as standard drug and given 1 hour prior to 2nd trial in scopolamine treated mice. Statistical analysis: Mean values and standard error (S.E.) of mean were calculated for TLT and specific activity of AChE in the different regions of brain samples of each group. The significance of difference between the values of AChE activity and TLT between the groups was determined by one-way ANOVA test that followed by Dunnett's test. Table 4: Effect of the compounds on scopolamine induced amnesia in passive avoidance test

[2] = target: T1, Acetylcholinesterase (Rattus norvegicus, UniProt P37136); assay: Inhibitive effect on acetylcholinesterase activity (Ellman assay, rat brain homogenate supernatant); type: biochemical, rats; conditions: for % Cholinesterase Enzyme Activity: Control AChE activity = 0.014446 (µmol / mg of protein/min)
T1 construct: Aliquots of this supernatant was diluted in the ratio of 1:10 and used as a source of enzyme for the assay; from tissue; host or cells: whole brain of adult SD male rats; 10% homogenate with 1% Triton X-100, 100,000 x g supernatant
T1 sequence (P37136 32-614): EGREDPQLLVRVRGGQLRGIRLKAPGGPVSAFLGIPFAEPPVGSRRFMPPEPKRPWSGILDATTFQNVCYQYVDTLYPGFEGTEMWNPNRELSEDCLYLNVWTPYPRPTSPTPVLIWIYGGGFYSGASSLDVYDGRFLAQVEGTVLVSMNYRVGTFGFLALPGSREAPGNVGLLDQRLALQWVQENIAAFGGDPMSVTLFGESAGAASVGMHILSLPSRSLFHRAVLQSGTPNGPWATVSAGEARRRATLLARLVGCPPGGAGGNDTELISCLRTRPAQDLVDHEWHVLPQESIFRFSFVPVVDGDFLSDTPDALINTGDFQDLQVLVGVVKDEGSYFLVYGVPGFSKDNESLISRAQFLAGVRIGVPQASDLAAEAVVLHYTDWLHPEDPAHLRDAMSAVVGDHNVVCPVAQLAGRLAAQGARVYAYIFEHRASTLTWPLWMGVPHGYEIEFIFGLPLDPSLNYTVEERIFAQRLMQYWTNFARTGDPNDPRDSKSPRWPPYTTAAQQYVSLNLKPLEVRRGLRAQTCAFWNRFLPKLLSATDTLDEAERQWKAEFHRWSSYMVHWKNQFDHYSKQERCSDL
Method: The study was conducted in adult SD male rats (200-250 g). Rats were perfused under mild ether anesthesia through heart with ice cooled normal saline (0.9% NaCl) to reduce blood-borne cholinesterase from brain. After perfusion whole brain was taken out. 10% (w/v) homogenate of brain was prepared first by homogenizing in Ultra-Turrax T25 homogenizer at a speed of 9500 rpm thrice giving intervals for few seconds in between the runs, with sodium phosphate buffer (30 mmol/lit, pH 7.0). Sodium phosphate buffer was taken in a volume half to the final volume required for 10% homogenate. 1% Triton X-100 (1% w/v in 30 mmol/lit. sodium phosphate buffer, pH 7.0) is then added in a volume to make the final volume for 10% homogenate, slowly while stirring the homogenate on ice.
Kinetic profile of the enzyme activity was studied spectrophotometrically at 412 nm at an interval of 15 s. Assay for each sample was run in duplicate and each experiment was performed thrice.
The specific activity of AChE is expressed in µmoles/min/mg of protein.
[…] Tacrine (1µmol) was used as standard AChE inhibitor (standard control). The AChE inhibitory activity was calculated on the basis of % decrease change from control values i.e. AChE acivity without incubation with any standard or test drug.
Bovine serum albumin (BSA) was used as standard in the concentration of 1 mg/ml. was estimated in the range of 0.01-0. mg/ml.

[3] = % Learning in treated gp - % Learning in Scopolamine gp, test compound orally 20µmol/kg, Donepezil 10 mg/kg po, read-out: % Improvement in Learning
[4] = [2nd Trial - 1st trial/1st trial] x 100, scopolamine treated mice, test compound orally 20µmol/kg, Donepezil 10 mg/kg po, read-out: % Learning

CCCCCCCNC(=O)Oc1ccc2ncccc2c1 [1b, heptyl-carbamic acid quinolin-6-yl ester] gave a change in vivo at 20 µmol/kg [1, 3] of 107% and a change in vivo at 20 µmol/kg [1, 4] of 140%.

Compound O=C(Nc1ccccc1Cl)Oc1ccc2ncccc2c1 [1c, (2-chloro-phenyl)-carbamic acid quinolin-6-yl ester] has a change in vivo at 20 µmol/kg [1, 3] of 123% and a change in vivo at 20 µmol/kg [1, 4] of 157%.

O=C(Nc1cccc(Br)c1)Oc1ccc2c(c1)CCCN2 [2c, (3-bromo-phenyl)-carbamic acid 1,2,3,4-tetrahydro-quinolin-6-yl ester] gave a change in vivo at 20 µmol/kg [1, 3] of 67.4% and a change in vivo at 20 µmol/kg [1, 4] of 101%.

Compound CCCCCCNC(=O)Oc1ccc2c(c1)CCCN2Cc1ccccc1 [2h, hexyl-carbamic acid 1-benzyl-1,2,3,4-tetrahydro-quinolin-6-yl ester] has a change in vivo at 20 µmol/kg [1, 3] of 89.2% and a change in vivo at 20 µmol/kg [1, 4] of 123%.

O=C(Nc1ccccc1Cl)Oc1ccc2c(c1)CCCN2Cc1ccccc1 [2i, (2-chloro-phenyl)-carbamic acid 1-benzyl-1,2,3,4-tetrahydro-quinolin-6-yl ester] was tested, and the change in vivo at 20 µmol/kg [1, 3] was 89.6%, the change in vivo at 20 µmol/kg [1, 4] was 123% and the IC50 [2] was 3.31 µM. The “% Anticholinesterase Enzyme Inhibition” value ([2]; Conc. 0.1 µm) was 6.45%, the “Cholinesterase Enzyme Activity” value ([2]; Conc. 0.1 µm) was 0.01351 µmol / mg of protein/min and the “% Cholinesterase Enzyme Activity” value ([2]; Conc. 0.1 µm) was 93.54%. For the same compound, the “% Anticholinesterase Enzyme Inhibition” value ([2]; Conc. 0.3 µm) was 16.12%, the “Cholinesterase Enzyme Activity” value ([2]; Conc. 0.3 µm) was 0.01211 µmol / mg of protein/min and the “% Cholinesterase Enzyme Activity” value ([2]; Conc. 0.3 µm) was 83.87%. For the same compound, the “% Anticholinesterase Enzyme Inhibition” value ([2]; Conc. 1 µm) was 25.80%, the “Cholinesterase Enzyme Activity” value ([2]; Conc. 1 µm) was 0.01071 µmol / mg of protein/min and the “% Cholinesterase Enzyme Activity” value ([2]; Conc. 1 µm) was 74.19%. The “% Anticholinesterase Enzyme Inhibition” value ([2]; Conc. 3 µm) was 48.38%, the “Cholinesterase Enzyme Activity” value ([2]; Conc. 3 µm) was 0.007456 µmol / mg of protein/min and the “% Cholinesterase Enzyme Activity” value ([2]; Conc. 3 µm) was 51.61%. The “% Anticholinesterase Enzyme Inhibition” value ([2]; Conc. 10 µm) was 87.09%, the “Cholinesterase Enzyme Activity” value ([2]; Conc. 10 µm) was 0.001864 µmol / mg of protein/min and the “% Cholinesterase Enzyme Activity” value ([2]; Conc. 10 µm) was 12.90%.

CN1CCCc2cc(OC(=O)Nc3ccc(Cl)c(C(F)(F)F)c3)ccc21 [2q, (4-chloro-3-trifluoromethyl-phenyl)-carbamic acid 1-methyl-1,2,3,4-tetrahydro-quinolin-6-yl ester] showed a change in vivo at 20 µmol/kg [1, 3] of 76% and a change in vivo at 20 µmol/kg [1, 4] of 109%.

For CN1CCCc2cc(OC(=O)Nc3ccc(Br)cc3)ccc21 [2r, (4-bromo-phenyl)-carbamic acid 1-methyl-1,2,3,4-tetrahydro-quinolin-6-yl ester], the change in vivo at 20 µmol/kg ([1]; po, read-out: % Improvement in Learning) was 62% and the change in vivo at 20 µmol/kg ([1]; po, read-out: % Learning) was 95.6%.

COc1cc2c(cc1OC)C(=O)C(CC1CCN(Cc3ccccc3)CC1)C2 (centres unmarked) [DONEPEZIL, donepezil, reference compound] showed a change in vivo at 20 µmol/kg [1, 3] of 134% and a change in vivo at 20 µmol/kg [1, 4] of 168%.
